What was measured:
Assay in all cases: relative viability (nuclei count vs DMSO), 5 days (fraction); higher = more cells survive
BEN = tested on: BEN
How it was run: (§1)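 Medians of duplicate plates are given as relative viability. That measure is the nuclei count in treated wells divided by the count in vehicle wells. Counts were taken on 4× images of lung cancer cell lines in 1536-well plates, 5 days after pin-tool dosing the day after seeding with one drug alone or a fixed anchor-drug dose plus five library-drug doses (not always all listed) in √10 steps.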

NCI-H2087 = tested on: NCI-H2087
How it was run: as §1

201T = tested on: 201T
How it was run: as §1

NCI-H1651 = tested on: NCI-H1651
How it was run: as §1

NCI-H596 = tested on: NCI-H596
How it was run: as §1

H3255 = tested on: H3255
How it was run: as §1

NCI-H1650 = tested on: NCI-H1650
How it was run: as §1

CAL-12T = tested on: CAL-12T
How it was run: as §1

NCI-H727 = tested on: NCI-H727
How it was run: as §1

NCI-H1915 = tested on: NCI-H1915
How it was run: as §1

NCI-H2023 = tested on: NCI-H2023
How it was run: as §1

NCI-H441 = tested on: NCI-H441
How it was run: as §1

NCI-H650 = tested on: NCI-H650
How it was run: as §1

NCI-H1944 = tested on: NCI-H1944
How it was run: as §1

NCI-H520 = tested on: NCI-H520
How it was run: as §1

A-427 = tested on: A-427
How it was run: as §1

NCI-H661 = tested on: NCI-H661
How it was run: as §1

PC-3 [JPC-3] = tested on: PC-3 [JPC-3]
How it was run: as §1

NCI-H460 = tested on: NCI-H460
How it was run: as §1

LCLC-97TM1 = tested on: LCLC-97TM1
How it was run: as §1

LC-2-ad = tested on: LC-2-ad
How it was run: as §1

ABC-1 = tested on: ABC-1
How it was run: as §1

## COc1cc2nccc(Oc3ccc(NC(=O)Nc4cc(C)on4)c(Cl)c3)c2cc1OC [Tivozanib] + CS(=O)(=O)N1CCN(Cc2cc3nc(-c4cccc5[nH]ncc45)nc(N4CCOCC4)c3s2)CC1 [Pictilisib] (partner 1 µM)
BEN; first compound 0.005 µM
  relative viability: 0.61
BEN; first compound 0.01581 µM
  relative viability: 0.541
BEN; first compound 0.05 µM
  relative viability: 0.603
BEN; first compound 0.5 µM
  relative viability: 0.505
NCI-H2087; first compound 0.005 µM
  relative viability: 0.765
NCI-H2087; first compound 0.01581 µM
  relative viability: 1.08
NCI-H2087; first compound 0.05 µM
  relative viability: 0.851
NCI-H2087; first compound 0.1581 µM
  relative viability: 0.738
NCI-H2087; first compound 0.5 µM
  relative viability: 1.02
201T; first compound 0.005 µM
  relative viability: 0.377
201T; first compound 0.01581 µM
  relative viability: 0.69
201T; first compound 0.05 µM
  relative viability: 0.686
201T; first compound 0.1581 µM
  relative viability: 0.588
201T; first compound 0.5 µM
  relative viability: 0.632
NCI-H1651; first compound 0.005 µM
  relative viability: 0.464
NCI-H1651; first compound 0.01581 µM
  relative viability: 0.581
NCI-H1651; first compound 0.05 µM
  relative viability: 0.613
NCI-H1651; first compound 0.1581 µM
  relative viability: 0.484
NCI-H1651; first compound 0.5 µM
  relative viability: 0.783
NCI-H596; first compound 0.005 µM
  relative viability: 0.28
NCI-H596; first compound 0.01581 µM
  relative viability: 0.364
NCI-H596; first compound 0.05 µM
  relative viability: 0.427
NCI-H596; first compound 0.1581 µM
  relative viability: 0.411
NCI-H596; first compound 0.5 µM
  relative viability: 0.326
H3255; first compound 0.005 µM
  relative viability: 0.451
H3255; first compound 0.01581 µM
  relative viability: 0.435
H3255; first compound 0.05 µM
  relative viability: 0.538
H3255; first compound 0.1581 µM
  relative viability: 0.449
H3255; first compound 0.5 µM
  relative viability: 0.421
NCI-H1650; first compound 0.005 µM
  relative viability: 0.561
NCI-H1650; first compound 0.01581 µM
  relative viability: 0.594
NCI-H1650; first compound 0.05 µM
  relative viability: 0.621
NCI-H1650; first compound 0.1581 µM
  relative viability: 0.558
NCI-H1650; first compound 0.5 µM
  relative viability: 0.498
CAL-12T; first compound 0.005 µM
  relative viability: 0.212
CAL-12T; first compound 0.01581 µM
  relative viability: 0.445
CAL-12T; first compound 0.05 µM
  relative viability: 0.608
CAL-12T; first compound 0.5 µM
  relative viability: 0.404
NCI-H727; first compound 0.005 µM
  relative viability: 0.349
NCI-H727; first compound 0.01581 µM
  relative viability: 0.56
NCI-H727; first compound 0.05 µM
  relative viability: 0.351
NCI-H727; first compound 0.5 µM
  relative viability: 0.398
NCI-H1915; first compound 0.005 µM
  relative viability: 0.936
NCI-H1915; first compound 0.01581 µM
  relative viability: 0.995
NCI-H1915; first compound 0.05 µM
  relative viability: 0.901
NCI-H1915; first compound 0.1581 µM
  relative viability: 0.485
NCI-H1915; first compound 0.5 µM
  relative viability: 0.742
NCI-H2023; first compound 0.005 µM
  relative viability: 0.238
NCI-H2023; first compound 0.01581 µM
  relative viability: 0.228
NCI-H2023; first compound 0.05 µM
  relative viability: 0.249
NCI-H2023; first compound 0.1581 µM
  relative viability: 0.178
NCI-H2023; first compound 0.5 µM
  relative viability: 0.195
NCI-H441; first compound 0.005 µM
  relative viability: 0.571
NCI-H441; first compound 0.01581 µM
  relative viability: 0.511
NCI-H441; first compound 0.05 µM
  relative viability: 0.536
NCI-H441; first compound 0.1581 µM
  relative viability: 0.484
NCI-H441; first compound 0.5 µM
  relative viability: 0.31
NCI-H650; first compound 0.005 µM
  relative viability: 0.674
NCI-H650; first compound 0.01581 µM
  relative viability: 0.866
NCI-H650; first compound 0.05 µM
  relative viability: 0.771
NCI-H650; first compound 0.1581 µM
  relative viability: 0.78
NCI-H650; first compound 0.5 µM
  relative viability: 0.77
NCI-H1944; first compound 0.005 µM
  relative viability: 0.327
NCI-H1944; first compound 0.01581 µM
  relative viability: 0.365
NCI-H1944; first compound 0.05 µM
  relative viability: 0.356
NCI-H1944; first compound 0.1581 µM
  relative viability: 0.289
NCI-H1944; first compound 0.5 µM
  relative viability: 0.307
NCI-H520; first compound 0.005 µM
  relative viability: 0.263
NCI-H520; first compound 0.01581 µM
  relative viability: 0.256
NCI-H520; first compound 0.05 µM
  relative viability: 0.295
NCI-H520; first compound 0.1581 µM
  relative viability: 0.242
NCI-H520; first compound 0.5 µM
  relative viability: 0.302
A-427; first compound 0.005 µM
  relative viability: 0.656
A-427; first compound 0.01581 µM
  relative viability: 0.746
A-427; first compound 0.05 µM
  relative viability: 0.705
A-427; first compound 0.1581 µM
  relative viability: 0.511
A-427; first compound 0.5 µM
  relative viability: 0.71
NCI-H661; first compound 0.005 µM
  relative viability: 0.37
NCI-H661; first compound 0.01581 µM
  relative viability: 0.339
NCI-H661; first compound 0.05 µM
  relative viability: 0.55
NCI-H661; first compound 0.1581 µM
  relative viability: 0.28
NCI-H661; first compound 0.5 µM
  relative viability: 0.38
PC-3 [JPC-3]; first compound 0.005 µM
  relative viability: 0.705
PC-3 [JPC-3]; first compound 0.01581 µM
  relative viability: 0.698
PC-3 [JPC-3]; first compound 0.05 µM
  relative viability: 0.757
PC-3 [JPC-3]; first compound 0.1581 µM
  relative viability: 0.604
PC-3 [JPC-3]; first compound 0.5 µM
  relative viability: 0.706
NCI-H460; first compound 0.005 µM
  relative viability: 0.337
NCI-H460; first compound 0.01581 µM
  relative viability: 0.296
NCI-H460; first compound 0.05 µM
  relative viability: 0.449
NCI-H460; first compound 0.1581 µM
  relative viability: 0.253
NCI-H460; first compound 0.5 µM
  relative viability: 0.36
LCLC-97TM1; first compound 0.005 µM
  relative viability: 0.206
LCLC-97TM1; first compound 0.01581 µM
  relative viability: 0.23
LCLC-97TM1; first compound 0.1581 µM
  relative viability: 0.119
LCLC-97TM1; first compound 0.5 µM
  relative viability: 0.164
LC-2-ad; first compound 0.005 µM
  relative viability: 0.417
LC-2-ad; first compound 0.01581 µM
  relative viability: 0.353
LC-2-ad; first compound 0.05 µM
  relative viability: 0.263
LC-2-ad; first compound 0.1581 µM
  relative viability: 0.204
LC-2-ad; first compound 0.5 µM
  relative viability: 0.159
ABC-1; first compound 0.005 µM
  relative viability: 0.775
ABC-1; first compound 0.01581 µM
  relative viability: 0.673
ABC-1; first compound 0.05 µM
  relative viability: 0.794
ABC-1; first compound 0.1581 µM
  relative viability: 0.646
ABC-1; first compound 0.5 µM
  relative viability: 0.326

— the supplement of paper PMC10307832
